In US20050245471A1, “Combination products for use in antitumoral treatment” (priority 2002, published 2005):

test system: CSF-1; test: Quantification of CSF-1 secreted by NS2T2A1 cells transfected with oligonucleotides (ELISA); assay type: cell-based, human; details: 250 nM oligonucleotide with 2.4 μg/ml cytofectin GS-3815, ELISA of culture medium 24 h after beginning of transfection, relative to non-transfected cell line
Experimental: Line NS2T2A1 is a line of cells from the human breast (Ma et al., Int. J. Cancer, 1998, 78: 112-119) obtained by mammoplasty, transformed by SV40. This line secretes CSF-1 linearly as a function of the cell growth.
The cells were cultivated in medium M5 (Gibco, France) complemented with 5% of -horse serum as described by Ma et al. (Int. J. Cancer, 1998, 78:112-119). Seeding was done in 6 well plates at a concentration, of 5×10^5 cells/ml/well. Transfection by oligonucleotides was done 24 h later, when the cells were in the exponential growth phase and they had reached 60% to 80% of confluence.
Transfection by oligonucleotides was done using cytofectin GS-3815 (Glen research, Sterling. Va.). Oligonucleotides and cytofectin were diluted separately in polystyrene tubes with the opti-MEM medium (Gibco, France), and the cytofectin was mixed with an equal volume of diluted oligonucleotides. The mix was left for 15 minutes at ambient temperature to enable the formation of oligonucleotide/cytofectin complexes. Finally, the M5 medium was added to the solution to obtain final concentrations equal to 2.4 μg/ml of cytofectin and 250 nM of oligonucleotides. All transfections were done in the M5 medium and in a final volume of 1 ml. Oligonucleotide/cytofectin complexes were left in contact with cells for 24 h. All steps described above were done under sterile conditions.
All experiments were done in triplicate for each concentration of oligonucleotides.
The quantity of CSF-1 secreted in the culture medium of NS2T2A1 cells was-measured by an ELISA test, 24 h after the beginning of the transfection, referring strictly to the protocol described by the supplier (R&D systems, Europe Ltd, UK). The results are expressed as a percentage of CSF-1 expressed by the transfected cells with respect to the CSF-1 expressed by a non-transfected cell line.

| Substance | Percentage of CSF-1 expressed [%] |
| --- | --- |
| SEQ ID No. 2: phosphorothioate oligonucleotide with pdU/pdC base substitutions, hybridising region 135-152 of SEQ ID No. 1 (CSF-1) (GGGAGGGUGCUGUACCGA; listed as RNA, chemistry not fully specified) | 70 |
| SEQ ID No. 3: phosphorothioate oligonucleotide with pdU/pdC base substitutions, hybridising region 284-301 of SEQ ID No. 1 (CSF-1) (UCUGGAGCAGGUUAAU; listed as RNA, chemistry not fully specified) | 39 |
| SEQ ID No. 4: phosphorothioate oligonucleotide with pdU/pdC base substitutions, hybridising region 341-358 of SEQ ID No. 1 (CSF-1) (ACACGAUGGAAUUCUUCC; listed as RNA, chemistry not fully specified) | 50 |
| SEQ ID No. 5: phosphorothioate oligonucleotide with pdU/pdC base substitutions, hybridising region 409-426 of SEQ ID No. 1 (CSF-1) (UUGUGGCGGUUAGGGUAG; listed as RNA, chemistry not fully specified) | 90 |
